Test results as given in patent US20250179509A1, “NATIVE DELIVERY OF BIOMOLECULES INTO PLANT CELLS USING IONIC COMPLEXES WITH CELL-PENETRATING PEPTIDES” (BASF Plant Science Company GmbH, priority 2018, published 2025).

Key:
rice callus cells = assay: CLSM observation of intracellular uptake and distribution of Citrine after vacuum/pressure infiltration; type: cell-based, Oryza sativa, cv. Nipponbare; conditions: for distribution of Citrine in callus cell: 5-day callus cell, 72-hours incubation, FM 4-64 stain, 3D images and optical sections
Experimental: Mature dry seeds of Oryza sativa, cv. Nipponbare (O. sativa) were surface-sterilized with 70% ethanol (v/v) for 1 min, followed by 30 min in 50% (v/v) commercial bleach with rotation at 20 rpm. Seeds were then washed 8-10 times with sterile distilled water and dried on autoclaved Kimwipes (3 mm) for 5 min. For callus induction, sixteen seeds were inoculated petri plate on callus induction medium (N6D) and incubated at 30° C. with continuous light in a plant bio-incubator (TOMY CLE-303 cultivation chamber Tokyo, Japan). N6D was prepared using basal 30 g/L […], 0.3 g/L casamino acid, 2.8 g/L L-proline, 2 mg/L 2,4-dichlorophenoxyacetic acid (2,4-D), 4.0 g/L CHO (N6) basal salt mix, gelled with 4 g/L phytagel and pH adjusted to 5.8 before autoclaving. After 5-day cultivation, the callus was cut into approximately four equal parts. This callus was used as the 5-day callus in this work. On the other hand, after 21-day cultivation, the self-shedding callus was collected and used as the 21-day callus. For the callus regeneration test, the callus was cut to small pieces in different sizes, then transferred onto a regeneration medium and incubated at 30° C. with continuous light for 7 days. […] The regeneration medium was prepared based on using 4 g/L MS powder with vitamin, supplied with 30 g/L sorbitol, 30 g/L sucrose, 4 g/L casamino acid, 2 mg/L 2,4-D and 2 mg/L 1-Naphthaleneacetic acid (NAA), gelled with 4 g/L phytagel and pH was adjusted to 5.8 before autoclaving. The chemicals used in this research are purchased from Sigma (Sigma-Aldrich, MO, USA) and Wako (Wako, Pure Chemical, Tokyo, Japan).
(§1) 10 mg rice callus (5-day or 21-day) was immersed in 100 μL of fresh prepared complex solutions in a screw cap tube. Subsequently depressurized the solution at −0.08 MPa for 1 min and compressed at +0.08 MPa for 1 min. After this treatment, the callus was transferred onto the N6D medium, and incubated at 30° C. in the dark until use.
Confocal laser scanning microscopy (CLSM, ZeissLSM 700, Carl Zeiss, Oberkochen, Germany) was used to evaluate the intracellular uptake of CPP-FP-Citrine every 24 hours. Before the observation by CLSM, the callus on N6D was transferred into a 1.5 mL Eppendorf tube and washed thoroughly with Milli-q water contains 0.1% tween 20 for five times to remove the Citrine on cell surface. Thereafter, the callus was cut into tiny pieces and mounted on glass slides, then covered with coverslips. CPP-FP-Citrine was detected by setting the excitation at 488 nm and emission in a range of 505-600 nm. For distinguish plasma membrane region and cytoplasm region, the callus was additionally incubated with FM4-64 (20 µM, 20 min at RT) for cell membrane stain, and detected by setting the excitation at 405 nm and emission at 560-700. Furthermore, quantification of the intracellular Citrine by western blot immunoassay. After 72-hour post-infiltration, the protein was extracted from rice callus. The rice callus was frozen with liquid nitrogen, and then grinding in a mortar into powder. 50 μl of 10 mM Tris-HCL buffer (pH 7.4) containing 10 μL Halt protease inhibitor cocktail (Thermo Scientific, MA, USA) was added to 0.1 g callus powder, mixed well and incubated on ice for 1 hour. After centrifuge at […], 4° C. for 20 min, the supernatant was collected and used as the cell extraction. 10 μL of the cell extraction was subjected to a 4-20% sodium dodecyl sulfate polyacrylamide electrophoresis gels (SDS-PAGE, Bio-Rad, California, USA). Proteins were then transferred onto a PVDF membranes (Bio-Rad, California, USA) using a semi-dry transfer cell (Bio-Rad, California, USA) at 10 V for 1 hour. The immunodetection of Citrine was performed with a rabbit polyclonal antibody (GFP antibody NB600-308, Novus Biologicals, Co, USA, dilution to 1:2000). IgG goat anti-rabbit antibody conjugated with horse radish peroxidase was used as a secondary antibody (goat anti-rabbit IgG H&L HRP ab6789, Abcam, Cambridge, UK, dilution to 1:20000). […]

[1] = Secondary structure contents of peptides (DichroWeb analysis); type: physicochemical; conditions: various solvents, reducing or non-reducing conditions
Experimental: FIG. 20: Secondary structure contents of BPCH7, BPLH7, and BPKH in various solvents (reducing or non-reducing conditions). Analysis was performed using DichroWeb (CONTIN, dataset 4).

5-day callus cell = assay: Western blot quantification of Citrine extracted from rice callus; type: cell-based, Oryza sativa, cv. Nipponbare; conditions: 72-hour post-infiltration, with vacuum and pressure treatment, area intensity compared with positive control
Experimental: as §1
Confocal laser scanning microscopy (CLSM, ZeissLSM 700, Carl Zeiss, Oberkochen, Germany) was used to evaluate the intracellular uptake of CPP-FP-Citrine every 24 hours. Before the observation by CLSM, the callus on N6D was transferred into a 1.5 mL Eppendorf tube and washed thoroughly with Milli-q water contains 0.1% tween 20 for five times to remove the Citrine on cell surface. […] CPP-FP-Citrine was detected by setting the excitation at 488 nm and emission in a range of 505-600 nm. For distinguish plasma membrane region and cytoplasm region, the callus was additionally incubated with FM4-64 (20 µM, 20 min at RT) for cell membrane stain, and detected by setting the excitation at 405 nm and emission at 560-700. Furthermore, quantification of the intracellular Citrine by western blot immunoassay. […]
We next quantified the Citrine from the cell extraction by western blot. […] As controls, the samples with infiltration of Milli-q water and Citrine only without vacuum and pressure treatment were also analyzed (FIG. 7a). […]

rice cells = assay: Delivery of DNA into rice cells by linear versus cyclic peptide; type: cell-based
Experimental: BP2 is a cyclic peptide due to its disulphide bond between the two cysteins. This structure improve binding to proteins, peptides and DNA and improves cell survival (reduced cell toxicity) and regeneration. These advantages of the cyclic structure were analysed by studying a linear, non-cyclic, version of BP2 with regards to its potential to delivery.

rice callus = assay: Delivery of dsRed plasmid DNA into rice callus and dsRed expression; type: cell-based; conditions: dsRed plasmid DNA (SEQ ID NO: 1) combined with peptide, after 4 days
Experimental: CPP (BP100 KH9) and dsRed plasmid DNA (Seq ID NO: 1) or Cy3 labelled PNA (peptide nucleic acid) (1:10 molar ratio) were mixed together and incubated for 30 minutes at 4° C. After incubation the volume was made up to 100 μl with water.
Callus from 5-7 days old rice seeds were used for the experiments. To 10 mg of callus, CPP/DNA or CPP/PNA mixture was added and vacuum infiltrated for 15 mins, washed with distilled water and plated on N6 medium.

Sequence	distribution of Citrine in callus cell (rice callus cells)	Citrine fluorescence inside of the cells observed, time after infiltration (rice callus cells; 5-day callus cells, P/C ratio of 100)	secondary structure ([1]; listed as BP2)	Citrine delivered (5-day callus cell)	secondary structure [1]	activity in delivery DNA into rice cells (rice cells)	Citrine fluorescence inside of the cells observed, time after infiltration (rice callus cells; 5-day callus cells, P/C ratio of 1)	Citrine fluorescence inside of the cells first observed, time after infiltration (rice callus cells; 5-day callus cells, P/C ratio of 10)	Citrine florescence observed, time after infiltration (rice callus cells; 21-day rice callus, P/C ratio of 10)	dsRed expression (red fluorescence) (rice callus)
KKLFKKILKYLHHCRGHTVHSHHHCIR (BP2 amino acid sequence, synthetic) [BP100CH7]	located in cell membrane and the cytoplasm regions of the cells	72 h	higher helix and strand order	0.043 ng/mg callus						
KKLFKKILKYLHHCRGHTVHSHHHCIR [LH7, linear, non-cyclic version of BP2, reference compound]					higher degree of unordered structure	significantly lower activity				
KKLFKKILKYLKHKHKHKHKHKHKHKHKH (BP1 amino acid sequence, synthetic) [BP100 (KH)9]	located in cell membrane and the cytoplasm regions of the cells			0.042 ng/mg callus	higher helix and strand order		72 h	48 h	48 h	visible red fluorescence
